Here are results for 4 compounds from article PMC4995024, “Ligand Binding at the α4-α4 Agonist-Binding Site of the α4β2 nAChR Triggers Receptor Activation through a Pre-Activated Conformational State” (PLoS ONE, 2016).

Several values for one entry are separate records, joined by “and”; a condition that tells them apart may be missing. Equal values may be shown once. Entries after “also recorded” stand apart in the source; their conditions may differ. Read-outs that look alike come from different tables or passages of the source. Marks after values point to notes of the source that are not given here.

Test [1] concerns the target T1, 2α4:3β2 nAChR (Homo sapiens, UniProt P17787+P43681).
T1 construct: expressed in transfected cells; host or cells: Xenopus laevis oocytes injected with cRNA (α4:β2 ratio 1:4)
The experiment in a line: Two-electrode voltage-clamp electrophysiology in Xenopus oocytes, WT 2α4:3β2 receptor. The class given is cell-based. To be noted: for Agonist type: 2α4:3β2, relative to saturating ACh (1 mM). How it is done:
(§1) cDNA encoding human nAChR α4 and β2 subunits were cloned, and cRNA was prepared as previously described. A triple-point-mutated β2^m subunit with the mutations V136H, F144Q, and L146T was constructed as previously described.
(§2) This study was carried out in strict accordance with the Australian Code of Practice for the Care and Use of Animals for Scientific Purposes. The protocol for this specific study was approved by the Animal Ethics Committee of the University of Sydney (Protocol number: 2013/5915). All surgical procedures were carried out in under anesthesia induced by immersion in a tricaine solution to ameliorate suffering. […] Mature female Xenopus laevis frogs were anaesthetised with 0.17% tricaine (buffered with 0.06% sodium bicarbonate) for 15 minutes, after which the loss of righting reflex was confirmed before transferring on to ice where surgeries were performed. A small (1–2 cm) abdominal incision was made through both the skin and muscle layer with surgical knives. Ovary lobes were removed with a pair of forceps, and kept in oocyte releasing 2 (OR2) buffer (82.5 mM NaCl, 2 mM KCl, 1 mM MgCl2, 5 mM HEPES hemisodium; pH 7.4). The skin and muscle layer were sutured separately, and frogs were allowed to recover for six months before they were reselected for surgeries. A total of five recoverable surgeries with 6–12 months recovery periods between surgeries were performed on each frog to reduce the adverse effects of Xenopus transportation into Australia, as approved by the Animal Ethics Committee of the University of Sydney (Protocol number: 2013/5915) before a terminal surgery was performed, in which a lethal dose of tricaine (0.5%) was used. Briefly, lobes from ovaries of female adult X. laevis were removed and defolliculated to obtain isolated oocytes. Oocytes were injected with a total of ∼25 ng of cRNA encoding human WT receptor as shown earlier to express 3α4:2β2 and 2α4:3β2 [17], and incubated for 2–5 days at 15–18°C.
(§3) Oocytes were subjected to two-electrode voltage-clamp electrophysiological testing using a custom-built system where solutions were applied directly to the oocytes via a glass capillary tube placed in the vicinity of the cell. This ensured a solution exchange rate faster than two seconds. Ligand was applied for 30 sec and peak current amplitudes were measured. To minimise the effects of long desensitized states, the number of applications of ligand at each oocyte was minimized rather than performing full concentration-response curves on individual oocytes.
(§4) Concentration–response curves for Sazetidine-A and TC-2559 were fitted using GraphPad Prism 6 to a monophasic Hill equation with Hill Slope of 1: I=Imax(1/1+(EC50/A)) Where Imax is the maximum current, EC50 is the concentration that produces the half-maximal response and [A] is the concentration of ligand.
(Two-electrode voltage clamp is typically applied to oocytes expressing channels or transporters.)

For test [2], the system named is T2, 3α4:2β2^HQT nAChR (β2 V136H, F144Q, L146T).
T2 construct: expressed in transfected cells; host or cells: Xenopus laevis oocytes injected with cRNA
Kind of test: Two-electrode voltage-clamp electrophysiology in Xenopus oocytes, mutated 3α4:2β2^HQT receptor. The class given is cell-based, human. Particulars: for I/I1mM ACh: 3α4:2β2^HQT; for Activation of 3α4:2β2^HQT mutant receptors: receptor with three α4-α4-like interfaces. How it is done: as §1, §2, §3
Nevertheless, a contribution to Saz-A and TC-2559 activation from binding at the α4-α4 interface cannot be excluded from these experiments. Therefore, Saz-A and TC-2559 were applied to mutated 3α4:2β2^HQT receptors where the α4-β2 binding site is abolished. […]

Test [3] has as its target T3, 3α4:2β2 nAChR (Homo sapiens, UniProt P17787+P43681). Kind of test: Linear kinetic models (Model 1, Model 2) of 3α4:2β2 receptor activation. Particulars: for Constant multiplier C (CE / CF): from change in EC50 and Po,max when NS9283 (10 μM) applied in addition to the agonist.
Description: To determine how binding at the α4-α4 site alters receptor transitions during activation, two simple linear kinetic models were used to describe receptor activation when two α4-β2 binding sites are occupied. For simplicity the binding of two ligands at α4-β2 sites is combined into a single step. The first model (Model 1) is a three-step model designed to determine whether the third ligand alters: (i) the binding affinity of ligands at the α4-β2 site (cooperativity); (ii) the transitions between closed and open states (gating) or (iii) the transitions between open and a distinct closed state in the presence of ligand (desensitization). The second model (Model 2) expanded the gating transitions to investigate whether a pre-activation (flipping) step is altered. We then determined which equilibrium constant was principally modulated in these models when NS9283 bound to the α4-α4 site potentiated the Saz-A or TC-2559 responses.
The open probability for the first model is given by (Fig 4A): PoCtrl=E.[A]/K+[A](1+E+E.D) (1) Where E is the gating constant, [A] is the agonist concentration, K is the dissociation constant of Saz-A or TC-2559, and D is the desensitizing constant. By rearranging Eq 1 to isolate [A]: PoCtrl=E/1+E+E.D/1+K/[A].(1+E+E.D) (2)
The open probability curve will fit to a Hill equation with a slope coefficient of one, since the ligand binding steps have been simplified by aggregating into a single transition. It follows from Eq 2 that the maximum open probability (when [A] approaches infinity) is given by: Po,maxCtrl=E/1+E+E.D (3) and the half-maximum effective concentration is: EC50Ctrl=K/1+E+E.D (4) It is apparent from Eq 3 that to determine the equilibrium constants for this kinetic model, the open probability (Po) of the receptor must be estimated by normalizing to the responses to ACh and NS206, rather than normalizing to the response of a saturating concentration of ACh.
The open probability in the presence of NS9283 ( Po.maxNS ; the superscript denotes when NS9283 is co-applied) and half-maximum effective concentration ( EC50NS ) can be described by substituting E with CE.E in Eqs 3 and 4 respectively. The value of CE can then be calculated from the ratios of the EC50 values and the maximum open probabilities in control and when potentiated by NS9283, as follows: EC50ctrl/Po,maxctrl=K/E (5) EC50NS/Po,maxNS=K/CE.E (6) CE=Po,maxNS/Po,maxctrl×EC50ctrl/EC50NS (7)
As NS9283 binds selectively to the α4-α4 site, we assumed that it has the same multiplier effect; regardless of which partial agonist is bound at the α4-β2 site. […] Equilibrium constants were then calculated using the following equations. Rearranging Eq 3: 1/Po.maxCtrl−1=1+D.E/E (8)
Rearranging to give D. D=CE(1/Po,maxNS−1)−(1/Po,maxctrl−1)/CE−1 (11)
Rearranging Eq 3 to give E. E=Po,maxctrl/(1−Po,maxctrl−D.Po,maxctrl) (12)
Rearranging Eqs 5 and 6 to give K K=E.EC50ctrl/Po,maxctrl=CE.E.EC50NS/Po,maxNS (13)
The open probability for this model is given by the following: Po=E.F.[A]/K+[A](1+F+E.F) (17)
Where K is the dissociation constant, F is the pre-activating equilibrium constant and E is the gating constant. It also follows that the maximum open probability is given by: Po,max=E.F/1+F+E.F (18)
Thus, both F and E will have an influence on the observed macroscopic efficacy. The half-maximum effective concentration is: EC50=K/1+F+E.F (19)
We investigated the possibility that NS9283 increases the pre-activation constant, F, by a factor, CF, in Model 2 (Fig 5B; Scheme 2).
By subtracting Eq 21 from Eq 22 and re-arranging in terms of E: E=CF−1/CF(1/Po,maxNS−1)−(1/Po,maxctrl−1) (23)
The value of E can then be calculated using Eq 23.
Test [4] deals with T3, 3α4:2β2 nAChR. Kind of test: Two-electrode voltage-clamp electrophysiology in Xenopus oocytes, WT 3α4:2β2 receptor. The class given is cell-based. The arrangement: expressed in transfected cells; host or cells: Xenopus laevis oocytes injected with cRNA (α4:β2 ratio 4:1). To be noted: for Decrease of EC50 value by co-application of NS9283 / Increase of maximum response by co-application of NS9283: 3α4:2β2, NS9283 10 μM; for Est Pomax: normalized to 1 mM ACh + NS206 (10 μM); for Agonist type: 3α4:2β2, relative to saturating ACh (1 mM). The method, then:
as §1, §2, §3, §4
Concentration–response curves for ACh were fitted using GraphPad Prism 6 to a biphasic Hill equation with Hill slopes of 1: I=Imax*((Frac1/1+(EC50(1)/[A]))+(Frac2/1+(EC50(2)/[A]))) Where Frac1 and Frac2 are the fractions and EC50(1) and EC50(2) are the half-maximal concentrations of high and low-sensitivity phases of the concentration-response curves, respectively.
Ideally, single-channel recordings would be used to estimate the Po,max values; however this is technically highly challenging for α4β2 nAChRs due to channel rundown and desensitization. To overcome this, an alternate method utilizing co-application of ACh and NS206, a positive allosteric modulator (PAM), was used to estimate the maximum open probability (Est. Po,max) at 3α4:2β2 receptors. […] We have assumed that when both the positive allosteric modulator and native ligand ACh are bound, the probability of the receptor being opened is approaching one, and was previously successfully used for other members of LGICs.

In test [5] the target is T3, 3α4:2β2 nAChR. The arrangement: expressed in transfected cells; host or cells: Xenopus laevis oocytes injected with cRNA (α4:β2 ratio 4:1); method as in PMID 16720757, PMID 21795528. Particulars: 3α4:2β2 stoichiometry; cited from earlier work.
[6] abbreviates: read-out: K (binding equilibrium constant), Model-1, Model 1, 3α4:2β2.
The mark [7] stands for this setting: read-out: K (binding equilibrium constant), Model-2, Model 2, 3α4:2β2.
Where [8] appears, read: 3α4:2β2, co-applied with NS9283 (10 μM).

T1 sequence (P43681 29-627 limits assumed): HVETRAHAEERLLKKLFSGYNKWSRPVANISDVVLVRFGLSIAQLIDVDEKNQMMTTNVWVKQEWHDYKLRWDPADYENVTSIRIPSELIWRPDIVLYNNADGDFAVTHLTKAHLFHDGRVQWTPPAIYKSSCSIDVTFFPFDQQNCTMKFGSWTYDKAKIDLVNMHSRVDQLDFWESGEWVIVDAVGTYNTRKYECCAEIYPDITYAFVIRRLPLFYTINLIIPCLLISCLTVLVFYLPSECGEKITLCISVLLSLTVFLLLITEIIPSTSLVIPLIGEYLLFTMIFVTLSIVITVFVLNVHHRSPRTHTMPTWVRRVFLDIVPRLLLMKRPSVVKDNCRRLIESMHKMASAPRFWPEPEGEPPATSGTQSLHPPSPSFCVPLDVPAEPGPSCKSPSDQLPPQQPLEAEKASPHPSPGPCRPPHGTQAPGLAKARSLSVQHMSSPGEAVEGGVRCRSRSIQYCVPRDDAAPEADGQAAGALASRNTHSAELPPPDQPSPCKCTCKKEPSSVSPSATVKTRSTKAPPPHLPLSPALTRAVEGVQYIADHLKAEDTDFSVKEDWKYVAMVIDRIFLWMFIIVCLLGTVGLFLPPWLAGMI
T1 sequence (P17787 26-502): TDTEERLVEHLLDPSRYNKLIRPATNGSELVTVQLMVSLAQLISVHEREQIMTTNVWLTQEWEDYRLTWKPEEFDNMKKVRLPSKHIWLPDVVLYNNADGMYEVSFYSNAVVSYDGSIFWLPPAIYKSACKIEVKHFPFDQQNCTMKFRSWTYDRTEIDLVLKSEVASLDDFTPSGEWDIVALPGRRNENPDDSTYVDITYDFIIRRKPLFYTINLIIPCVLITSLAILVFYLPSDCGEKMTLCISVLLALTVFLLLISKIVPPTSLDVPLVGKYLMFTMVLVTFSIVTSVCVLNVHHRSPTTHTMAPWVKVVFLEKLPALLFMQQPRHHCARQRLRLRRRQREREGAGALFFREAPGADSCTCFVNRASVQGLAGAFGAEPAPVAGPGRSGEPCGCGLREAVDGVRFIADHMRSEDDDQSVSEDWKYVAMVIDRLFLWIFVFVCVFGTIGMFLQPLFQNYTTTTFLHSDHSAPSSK
T3 sequence (P43681 29-627 limits assumed): as the sequence (P43681 29-627 limits assumed) above
T3 sequence (P17787 26-502): as the sequence (P17787 26-502) above

In the case of `OCCCCC#Cc1cncc(OC[C@@H]2CCN2)c1` [Saz-A, Sazetidine-A], in test [1] (2α4:3β2, ligand alone), the “I/I1mM ACh (maximum response normalized to 1 mM ACh)” value came to 108 ± 6%. Further, the response in test [1] (2α4:3β2, ligand alone, Hill co-efficient of one) was half-maximal at 10 nM (EC50). For the same compound, the Agonist type result in test [1] is “full agonist”. Further, in test [2], the “I/I1mM ACh” value is recorded as 0* % and the “Activation of 3α4:2β2^HQT mutant receptors” value is listed as “do not activate; also recorded: Neither Saz-A or TC-2559 activated”. Moreover, in test [3] (Model 1, 3α4:2β2), the “D (desensitized equilibrium constant), Model-1” value was found to be 0.50 and the “E (gating equilibrium constant), Model-1” value turned out to be 0.10. Further, in test [3] (Model 2, 3α4:2β2), the “E (gating equilibrium constant), Model-2” value is listed as 1.99 and the “F (flipping equilibrium constant), Model-2” value is recorded as 0.05. Further, in test [3], the “Constant multiplier C (CE / CF)” value is 8.7 and 8.75. The Kd in test [3] (setting [6]) is 27 nM. Moreover, the Kd in test [3] (setting [7]) amounted to 27 nM. Besides, in test [4], the “Decrease of EC50 value by co-application of NS9283” value was 2 fold, the “Increase of maximum response by co-application of NS9283” value came to 4.4 fold and the Agonist type entry is “partial agonists”. Besides, the “Est Pomax” value in test [4] (setting [8]) was 39% and 39 ± 1.5%. Besides, in test [4] (3α4:2β2, ligand alone), the “I/I1mM ACh (maximum response normalized to 1 mM ACh)” value was determined as 18 ± 1.4%; the “Est Pomax” value is 9.1% and 9 ± 0.7%. Besides, the EC50 in test [4] (3α4:2β2, ligand alone, Hill co-efficient of one) is 23 nM.
As to `CC(=O)OCC[N+](C)(C)C` [ACh, acetylcholine], the “Est Pomax” value in test [4] (3α4:2β2, ligand alone) was 51 ± 5%. For the same compound, the “Potency of α4-α4 binding site relative to α4-β2 binding site (less potent)” value in test [5] is ~ 100 fold.
As to `CCOc1cncc(/C=C/CCNC)c1` [TC-2559], in test [1] (2α4:3β2, ligand alone), the “I/I1mM ACh (maximum response normalized to 1 mM ACh)” value is 330 ± 10%. For the same compound, the Agonist type result in test [1] is “super agonist”. In test [2], the “I/I1mM ACh” value was 0* % and the “Activation of 3α4:2β2^HQT mutant receptors” value is given as “do not activate; also recorded: Neither Saz-A or TC-2559 activated”. For the same compound, in test [3] (Model 1, 3α4:2β2), the “D (desensitized equilibrium constant), Model-1” value was determined as 0.28 and the “E (gating equilibrium constant), Model-1” value amounted to 0.27. In addition, in test [3] (Model 2, 3α4:2β2), the “E (gating equilibrium constant), Model-2” value is recorded as 3.59 and the “F (flipping equilibrium constant), Model-2” value worked out at 0.08. Moreover, the “Constant multiplier C (CE / CF)” value in test [3] was 9.2 and 9.15. In test [3] (setting [6]), the Kd amounted to 833 nM. In test [3] (setting [7]), the Kd is 836 nM. Also, in test [4], the “Decrease of EC50 value by co-application of NS9283” value is 3.1 fold, the “Increase of maximum response by co-application of NS9283” value came out at 2.9 fold and the Agonist type entry is “partial agonists”. Moreover, the “Est Pomax” value in test [4] (setting [8]) is 59% and 59 ± 1.5%. Further, in test [4] (3α4:2β2, ligand alone), the “I/I1mM ACh (maximum response normalized to 1 mM ACh)” value was determined as 41 ±4%; the “Est Pomax” value was 20% and 20 ± 2%. For the same compound, in test [4] (3α4:2β2 vs 2α4:3β2), the “Difference of EC50 values between 3α4:2β2 and 2α4:3β2 receptors” value worked out at 5 fold.
Regarding `N#Cc1cccc(-c2nc(-c3cccnc3)no2)c1` [NS9283], in test [3] (NS9283 potentiation of Saz-A and TC-2559 activation, averaged), the “Constant multiplier C (CE / CF), averaged over Saz-A and TC-2559” value is recorded as 8.94.

What is called EC50 is the concentration giving half of the maximal effect.
